{"source": "patent US20140073643A1", "about": "“TREATMENT OF JAK2-MEDIATED CONDITIONS” (YM BIOSCIENCES AUSTRALIA PTY LTD, priority 2010, published 2014)", "key": {"[1]": {"test_system": "patients with high- or intermediate-risk primary myelofibrosis (PMF) and post-PV or post-essential thrombocythemia (ET) myelofibrosis", "experiment": "Phase I/II clinical trial of CYT387: anemia response / hemoglobin", "assay_type": "in vivo, human", "description": "By “anemia response” is meant an increase in the patient's hemoglobin level or a patient who was transfusion dependent becoming transfusion independent. Desirably, a minimum increase in hemoglobin of 2.0 g/dL lasting a minimum of 8 weeks is achieved, which is the level of improvement specified in the International Working Group (IWG) consensus criteria. However, smaller, but still medically significant, increases in hemoglobin are also considered to be within the term “anemia response”.\nA clinical trial was designed to assess the safety, tolerability, and pharmacokinetic behavior of CYT387 in a Phase I dose-escalation study in patients with high- or intermediate-risk primary myelofibrosis (PMF) and post-PV or post-essential thrombocythemia (ET) myelofibrosis. The secondary objective was evaluation of CYT387 's benefit to myelofibrosis patients. […] For patients achieving less than a complete remission after 3 cycles of treatment, escalation was permitted to the highest tolerated dose in the absence of disease progression or unacceptable toxicity. Once dose-limiting toxicity (DLT) was identified, a dose-confirmation cohort initiated treatment at the maximum tolerated dose (MTD) and/or a lower clinically effective dose.\n(§1) Results were obtained for 36 subjects enrolled in the 120 patient Phase I/II trial for which recruitment is ongoing. Of these, 18 patients were from the dose escalation phase, and 18 patients were from the subsequent dose confirmation phase. Twenty subjects (56%) were red cell transfusion-dependent at study entry. Prior treatment included other JAK inhibitors in ten patients (nine and one subjects with INCB018424 and TG101348, respectively) and pomalidomide in nine patients. The median treatment duration at publication was 15 weeks (range 4-38).\nAnemia Response: The total anemia response rate was 63%. Of 22 subjects who were evaluable for anemia response (baseline Hgb<10 g/dL or red cell transfusion-dependent), nine subjects (41%) had achieved “Clinical Improvement (CI)” as per the International Working Group for Myeloproliferative Neoplasms Research and Treatment (IWG-MRT) criteria, including two of four subjects who were previously treated with INCB018424. An additional five subjects experienced a >50% reduction in transfusion requirement.\nThere is also a line for “anemia evaluable” patients which are patients who are considered anemic at baseline by IWG criteria. That is they have a baseline hgb of <10 g/dL or are transfusion dependent at baseline."}, "[2]": {"test_system": "patients with high- or intermediate-risk primary myelofibrosis (PMF) and post-PV or post-essential thrombocythemia (ET) myelofibrosis", "experiment": "Phase I/II clinical trial of CYT387: constitutional symptoms", "assay_type": "in vivo, human", "conditions": "at last follow up", "description": "(§2) A clinical trial was designed to assess the safety, tolerability, and pharmacokinetic behavior of CYT387 in a Phase I dose-escalation study in patients with high- or intermediate-risk primary myelofibrosis (PMF) and post-PV or post-essential thrombocythemia (ET) myelofibrosis. The secondary objective was evaluation of CYT387 's benefit to myelofibrosis patients. CYT387 was administered orally (in a capsule without excipients) once daily in 28-day cycles. For patients achieving less than a complete remission after 3 cycles of treatment, escalation was permitted to the highest tolerated dose in the absence of disease progression or unacceptable toxicity. Once dose-limiting toxicity (DLT) was identified, a dose-confirmation cohort initiated treatment at the maximum tolerated dose (MTD) and/or a lower clinically effective dose.\nas §1\nConstitutional symptoms: The proportion of patients with the following symptoms at baseline was as follows: fatigue (97%), pruritus (22%), night sweats (38%), cough (13%), bone pain (28%), and fever (16%). At last follow up, improvement (complete resolution; CR) in these symptoms was reported by 68% (16% CR), 86% (57% CR), 83% (75% CR), 75% (50% CR), 78% (44% CR), and 100% (100% CR), respectively."}, "[3]": {"test_system": "patients with high- or intermediate-risk primary myelofibrosis (PMF) and post-PV or post-essential thrombocythemia (ET) myelofibrosis", "experiment": "Phase I/II clinical trial of CYT387: toxicity", "assay_type": "in vivo", "description": "as §2, §1\nTo date, 36 subjects were evaluable for toxicity. At the highest dose level (400 mg/day), two of six subjects experienced dose limiting toxicity (DLT) (one each with asymptomatic grade three hyperlipasemia and grade three headache that were reversible upon holding drug); consequently, the maximum tolerated dose (MTD) was declared at 300 mg/day. In the dose-confirmation phase, subjects were started at one of two dose levels that were deemed clinically effective: 150 mg/day (n=15) and 300 mg/day (n=3). Thirty-five subjects were on active therapy at publication of the abstract: 100 mg/day (n=2), 150 mg/day (n=20), 300 mg/day (n=10), and 400 mg/day (n=3)."}, "[4]": {"test_system": "patients with high- or intermediate-risk primary myelofibrosis (PMF) and post-PV or post-essential thrombocythemia (ET) myelofibrosis", "experiment": "Phase I/II clinical trial of CYT387: spleen response", "assay_type": "in vivo, human", "description": "By “spleen response” is meant a reduction in the size of the patient's spleen as assessed by either palpation of a previously palpable spleen during physical exam or by diagnostic imaging. The IWG consensus criteria specifies that there be either a minimum 50% reduction in palpable splenomegaly (spleen enlargement) of a spleen that is at least 10 cm at baseline (prior to treatment) or of a spleen that is palpable at more than 5 cm at baseline becomes not palpable. However, smaller reductions are also considered to be within the term “spleen response”.\nas §2, §1\nSpleen Size Reduction: Twenty nine (97%) of the 30 evaluable subjects who had splenomegaly at baseline (median 20 cm; range 10-32 cm) had some degree of spleen size reduction (median 9 cm; range 2-18 cm). Eleven (37%) patients have achieved a minimum 50% decrease in palpable spleen size, thus qualifying them for a CI per IWG-MRT criteria, including three out of eight subjects (38%) who were previously treated with INCB018424."}, "[5]": {"conditions": "administered once a day; cited from earlier work"}, "[6]": {"conditions": "Previous Treatment with IMids (Pomalidomide, Thalidomide, Revlimid)"}, "[7]": {"conditions": "Previous Treatment with INCB018424"}, "[8]": {"conditions": "Previous Treatment with TG-101348"}, "[9]": {"conditions": "Previous Treatment with Unspecified JAK2"}, "[10]": {"conditions": "Previous Treatment with any JAK2"}, "[11]": {"conditions": "interim response by diagnosis: PET"}, "[12]": {"conditions": "interim response by diagnosis: PMF"}, "[13]": {"conditions": "interim response by diagnosis: PPV"}, "[14]": {"conditions": "30 evaluable subjects with splenomegaly at baseline"}}, "note": "Marks after values point to notes of the source that are not given here.", "data": [{"smiles": "N#CCNC(=O)c1ccc(-c2ccnc(Nc3ccc(N4CCOCC4)cc3)n2)cc1", "note": "[CYT387, N-(cyanomethyl)-4-[2-[[4-(4-morpholinyl)phenyl]amino]-4-pyrimidinyl]-benzamide]", "values": [{"measurement": "effect on hemoglobin in transfusion dependent patients who respond (Tx responders)", "setting": "[1]; FIG. 2, no longer receiving RBC transfusions", "result": "modest initial increase in hemoglobin that is sustained"}, {"measurement": "Anemia response: % responders", "setting": "[1]; Initial Dose 150 BID", "result": 33, "unit": "%*"}, {"measurement": "Anemia response: Responders (number)", "setting": "[1]; Initial Dose 150 BID, 21 evaluable pts", "result": 7}, {"measurement": "Anemia response: % responders", "setting": "[1]; Initial Dose 150 QD", "result": 50, "unit": "%"}, {"measurement": "Anemia response: Responders (number)", "setting": "[1]; Initial Dose 150 QD, 32 evaluable pts", "result": 16}, {"measurement": "Anemia response: % responders", "setting": "[1]; Initial Dose 300 QD", "result": 54, "unit": "%"}, {"measurement": "Anemia response: Responders (number)", "setting": "[1]; Initial Dose 300 QD, 39 evaluable pts", "result": 21}, {"measurement": "Responders, Anemia", "setting": "[1]; [6]", "result": "Anemia: 9/14 = 64.3%"}, {"measurement": "Responders, Anemia", "setting": "[1]; [7]", "result": "Anemia: 4/7 = 57.1%"}, {"measurement": "Responders, Anemia", "setting": "[1]; [8]", "result": "Anemia: 3/4 = 75%"}, {"measurement": "Responders, Anemia", "setting": "[1]; [9]", "result": "Anemia: 2/3 = 66.7%"}, {"measurement": "Responders, Anemia", "setting": "[1]; [10]", "result": "Anemia: 9/14 = 64.3%"}, {"measurement": "effect on hemoglobin levels", "setting": "[1]; first 60 patients, FIG. 1 and 2", "result": "clear and sustained improvement in hemoglobin levels"}, {"measurement": "Anemia Response/Evaluable", "setting": "[1]; [11]", "result": "10/18 (55.6%)"}, {"measurement": "Anemia Response/Evaluable", "setting": "[1]; [12]", "result": "30/66 (45.5%)"}, {"measurement": "Anemia Response/Evaluable", "setting": "[1]; [13]", "result": "6/14 (42.9%)"}, {"measurement": "subjects achieving Clinical Improvement (CI) in anemia per IWG-MRT criteria", "setting": "[1]; nine of 22 evaluable subjects (baseline Hgb<10 g/dL or red cell transfusion-dependent)", "result": 41, "unit": "%"}, {"measurement": "additional subjects with >50% reduction in transfusion requirement", "setting": "[1]; of 22 evaluable subjects", "result": "five"}, {"measurement": "total anemia response rate", "setting": "[1]; oral once daily, 28-day cycles, 22 subjects evaluable for anemia response", "result": 63, "unit": "%"}, {"measurement": "subjects achieving anemia CI per IWG-MRT among those previously treated with INCB018424", "setting": "[1]; previously treated with INCB018424", "result": "two of four"}, {"measurement": "complete resolution (CR) of bone pain", "setting": "[2]", "result": 44, "unit": "%"}, {"measurement": "complete resolution (CR) of cough", "setting": "[2]", "result": 50, "unit": "%"}, {"measurement": "complete resolution (CR) of fatigue", "setting": "[2]", "result": 16, "unit": "%"}, {"measurement": "complete resolution (CR) of fever", "setting": "[2]", "result": 100, "unit": "%"}, {"measurement": "complete resolution (CR) of night sweats", "setting": "[2]", "result": 75, "unit": "%"}, {"measurement": "complete resolution (CR) of pruritus", "setting": "[2]", "result": 57, "unit": "%"}, {"measurement": "improvement in bone pain", "setting": "[2]", "result": 78, "unit": "%"}, {"measurement": "improvement in cough", "setting": "[2]", "result": 75, "unit": "%"}, {"measurement": "improvement in fever", "setting": "[2]", "result": 100, "unit": "%"}, {"measurement": "improvement in night sweats", "setting": "[2]", "result": 83, "unit": "%"}, {"measurement": "improvement in pruritus", "setting": "[2]", "result": 86, "unit": "%"}, {"measurement": "improvement in fatigue", "setting": "[2]; patients with symptom at baseline", "result": 68, "unit": "%"}, {"measurement": "Grade 3/4 thrombocytopenia", "setting": "[3]; human, in vivo", "result": 22, "unit": "%"}, {"measurement": "Treatment-emergent grade 3/4 neutropenia", "setting": "[3]; human, in vivo", "result": "not observed"}, {"measurement": "grade 4 non-hematological toxicities", "setting": "[3]; human, in vivo", "result": "No grade 4 non-hematological toxicities were observed"}, {"measurement": "subjects experiencing dose limiting toxicity (DLT)", "setting": "[3]; human, in vivo", "result": "two of six"}, {"measurement": "subjects with first-dose effect (grade 1 lightheadedness and hypotension)", "setting": "[3]; human, in vivo", "result": 36, "unit": "%"}, {"measurement": "time to resolution of first-dose effect", "setting": "[3]; human, in vivo", "result": "3 to 4", "unit": "h"}, {"measurement": "tolerability", "setting": "[3]; human, in vivo", "result": "well tolerated"}, {"measurement": "treatment-emergent grade 3 anemia", "setting": "[3]; human, in vivo", "result": 3, "unit": "%"}, {"measurement": "maximum tolerated dose (MTD)", "setting": "[3]; oral once daily", "result": 300, "unit": "mg/day"}, {"measurement": "subjects with some degree of spleen size reduction", "setting": "[4]; 29 of 30 evaluable subjects with splenomegaly at baseline (median 20 cm)", "result": 97, "unit": "%"}, {"measurement": "spleen size reduction, median", "setting": "[4]; [14]", "result": 9, "unit": "cm"}, {"measurement": "spleen size reduction, range", "setting": "[4]; [14]", "result": "2-18 cm"}, {"measurement": "Responders, Spleen", "setting": "[4]; [6]", "result": "Spleen: 6/11 = 54.5%"}, {"measurement": "Responders, Spleen", "setting": "[4]; [7]", "result": "Spleen: 3/10 = 30%"}, {"measurement": "Responders, Spleen", "setting": "[4]; [8]", "result": "Spleen: 1/4 = 25%"}, {"measurement": "Responders, Spleen", "setting": "[4]; [9]", "result": "Spleen: 1/3 = 33.3%"}, {"measurement": "Responders, Spleen", "setting": "[4]; [10]", "result": "Spleen: 5/17 = 29.4%"}, {"measurement": "patients with minimum 50% decrease in palpable spleen size (CI per IWG-MRT)", "setting": "[4]; eleven of 30 evaluable", "result": 37, "unit": "%"}, {"measurement": "Spleen Response/Evaluable", "setting": "[4]; [11]", "result": "7/19 (36.8%)"}, {"measurement": "Spleen Response/Evaluable", "setting": "[4]; [12]", "result": "22/82 (26.8%)"}, {"measurement": "Spleen Response/Evaluable", "setting": "[4]; [13]", "result": "11/33 (33.3%)"}, {"measurement": "patients with minimum 50% decrease in palpable spleen size (CI per IWG-MRT), previously treated with INCB018424", "setting": "[4]; three out of eight subjects previously treated with INCB018424", "result": 38, "unit": "%"}]}, {"smiles": "Cc1cnc(Nc2ccc(OCCN3CCCC3)cc2)nc1Nc1cccc(S(=O)(=O)NC(C)(C)C)c1", "note": "[TG101348]", "values": [{"measurement": "maximum tolerated dose (MTD)", "setting": "[5]", "result": 680, "unit": "mg/day"}]}]}
